The record followed here is patent EP0661266A1, “Substituted cyclic amine compounds as 5HT2 antagonists” (TOA EIYO LTD., priority 1993, dated 1995).

Structures can show the parent of a compound that is named as a salt. Where two headings read alike, the source gives them in different places.

One test concerns the target T1, serotonin 2 receptor (Rattus norvegicus, UniProt P14842).
T1 construct: A piece of wire was inserted into each of the thus excised blood vessels to prepare a spiral specimen; from tissue; host or cells: rat (Wistar-KY) abdominal side tail artery, spiral specimen
Briefly: Measurement of serotonin 2 receptor antagonistic activity (serotonin contraction of excised rat tail artery spiral specimen). The following applies: against the contraction of 3 x 10⁻⁶ serotonin, drug administered 10 minutes before cumulative serotonin, read-out: IC₅₀ value. In kind it is cell-based. The procedure:
[Measurement of serotonin 2 receptor antagonistic activity]
Male rats of Wistar-KY line (body weight, approximately 220 to 370 g) were sacrificed and subjected to bloodletting to excise abdominal side tail arteries. A piece of wire was inserted into each of the thus excised blood vessels to prepare a spiral specimen (approximately 1.5 x 30 mm). The specimen was suspended in a Magnus tube (10 ml; Krebs-Hensereit solution) with a load of 500 mg at 37°C, and a gas mixture of 95% O₂ + CO₂ was passed through the tube. Tensile force was measured using a tension transducer (TB-621T, manufactured by Nippon Koden) and writing the data on an ink recorder (FBA-253A, manufactured by Toa Denpa) via a pressure amplifier (AP-621G, manufactured by Nippon Koden). After 1 hour of equilibration time, the specimen was contracted with 10⁻⁵ M of serotonin, washed and then subjected to cumulative administration of 10⁻⁸ to 3 x 10⁻⁵ M serotonin at intervals of 45 minutes to record the resulting contraction twice. The second recording was used as a control. Thereafter, each of the drugs to be tested was administered 10 minutes before the commencement of the cumulative administration to evaluate its serotonin antagonism. […] In the table, each result was indicated by "+" when the IC₅₀ value was 1.0 x 10⁻⁷ M or more, "++" when the value was 9.9 x 10⁻⁸ to 1.0 x 10⁻⁸ M and "+++" when the value was 9.9 x 10⁻⁹ M or smaller.

The test system of test [1] is 5-HTP-induced head-twitch. The test can be described thus: Measurement of activity to inhibit 5-HTP-induced head-twitch. Format: in vivo, mouse. To be noted: read-out: IC₅₀ value. The method, then: [Measurement of activity to inhibit 5-HTP-induced head-twitch]
To each ICR male mouse of 4 weeks of age were administered 300 mg/kg of 5-HTP by intraperitoneal injection (i.p.) and then 0.03 to 3 mg/kg of each test drug 25 minutes thereafter by intravenous injection, thereby counting the number of head-twitch induced after 5 minutes of the administration (for 20 minutes) and calculating the IC₅₀ value. In the table, each result was indicated by "+" when the IC₅₀ value was […] or more, "++" when the value was 100 to 999 mg/kg and "+++" when the value was 99 mg/kg or less.

A further test has as its system platelet aggregation. Briefly: Measurement of platelet aggregation inhibition activity (5-HTP plus collagen induced aggregation of platelet rich plasma). In kind it is cell-based. The following applies: Oryctolagus cuniculus, rabbit PRP, 5-HTP final concentration 3 µM plus collagen in a concentration which alone does not cause aggregation, probit analysis, read-out: IC₅₀ value. The procedure: [Measurement of platelet aggregation inhibition activity]
Measurement of platelet aggregation was carried out using a platelet aggregation measuring apparatus NSB Hematracer 601.
Blood samples were collected from auricular arteries of male Japanese white rabbits (2 to 3 kg) using a syringe containing 1 volume of 3.8% sodium citrate per 9 volumes of blood and centrifuged at 900 rpm for 10 minutes. After collecting the resulting supernatant fluid as platelet rich plasma (PRP), the remaining lower layer was centrifuged at 3,000 rpm for 10 minutes to obtain platelet poor plasma (PPP). Platelets in the thus obtained PRP were counted using a microcell counter (Sysmex F-800, manufactured by Toa Iyo Denshi) and diluted with the PPP to a density of 30 x 10⁴/µl.
A 220 µl portion of PRP was mixed with 5 µl of 104 mM CaCl₂, incubated at 37°C for 1 minute and then mixed with 5 µl of a drug to be tested or physiological saline as a control. […] Activities to inhibit the aggregation reaction were measured to calculate 50% inhibition concentration (IC₅₀) by probit analysis, with the results shown in Table 2. In the table, each result was indicated by "+" when the IC₅₀ value was 1.0 x 10⁻⁶ M or more, "++" when the value was 9.9 x 10⁻⁷ to 1.0 x 10⁻⁷ M and "+++" when the value was 9.9 x 10⁻⁸ M or smaller.

T1 sequence (P14842 whole entry): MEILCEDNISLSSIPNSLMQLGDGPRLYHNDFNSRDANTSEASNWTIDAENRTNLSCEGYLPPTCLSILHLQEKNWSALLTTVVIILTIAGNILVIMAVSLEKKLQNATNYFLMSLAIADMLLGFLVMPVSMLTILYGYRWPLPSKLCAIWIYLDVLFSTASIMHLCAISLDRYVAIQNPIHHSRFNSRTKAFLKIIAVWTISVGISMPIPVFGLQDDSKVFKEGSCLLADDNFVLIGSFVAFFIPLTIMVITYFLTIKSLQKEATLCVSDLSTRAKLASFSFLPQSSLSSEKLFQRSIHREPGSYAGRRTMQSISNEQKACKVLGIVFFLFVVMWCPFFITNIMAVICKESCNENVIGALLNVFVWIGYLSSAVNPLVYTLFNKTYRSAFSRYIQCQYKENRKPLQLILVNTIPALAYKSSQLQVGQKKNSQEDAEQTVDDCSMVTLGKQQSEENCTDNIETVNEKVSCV

`COc1ccccc1N(CCN1CCC(C(=O)c2ccc(F)cc2)CC1)S(=O)(=O)c1ccc(CO)cc1` [F, N-{2-[4-(4-Fluorobenzoyl)piperidino]ethyl}-4-hydroxymethyl-N-(2-methoxyphenyl)benzenesulfonamide oxalate]: the IC50 at serotonin 2 receptor is less than 9.9 nM.

`COc1ccc(S(=O)(=O)NC(=N)CCN2CCC(C(=O)c3ccc(F)cc3)CC2)cc1` [Compound I, 3-[4-(4-Fluorobenzoyl)piperidino]-N-(4-methoxybenzenesulfonyl)propionamidine oxalate]: at serotonin 2 receptor, the IC50 was 10 to 99 nM.

With `COc1ccccc1N(CCN1CCC(C(=O)c2ccc(F)cc2)CC1)C(=O)c1ccc(CN)cc1.O=C(O)C(=O)O` [H, 4-Aminomethyl-N-{2-[4-(4-fluorobenzoyl)piperidino]ethyl}-N-(2-methoxyphenyl)benzamide oxalate], the ED50 in test [1] (Mus musculus, iv) is greater than 1000 mg/kg. For the same compound, the results for the IC50 in the test on platelet aggregation and at serotonin 2 receptor were 100 to 990 nM and 10 to 99 nM, respectively.

With `CC(=O)Nc1ccc(C(=O)N(CCN2CCC(C(=O)c3ccc(F)cc3)CC2)c2ccccc2)cc1` [K, 4-Acetylamino-N-{2-[4-(4-fluorobenzoyl)piperidino]ethyl}-N-(phenyl)benzamide fumarate], the IC50 on serotonin 2 receptor is 10 to 99 nM.

Consider `COc1ccc(S(=O)(=O)N(CCN2CCC(C(=O)c3ccc(F)cc3)CC2)C2CCCCC2)cc1` [E, N-Cyclohexyl-N-{2-[4-(4-fluorobenzoyl)piperidino]ethyl}-4-methoxybenzenesulfonamide oxalate], for which, at serotonin 2 receptor, the IC50 was in the range of 10 to 99 nM.

As for `O=C(c1ccc(F)cc1)C1CCN(CCn2c(=O)[nH]c3ccccc3c2=O)CC1` [ketanserin, reference compound], the ED50 in test [1] (ICR male mouse, 300 mg/kg 5-HTP i.p., test drug 0.03 to 3 mg/kg intravenous 25 minutes thereafter, head-twitch counted for 20 minutes) is less than 99 mg/kg. Besides, the IC50 in the test on platelet aggregation was in the range of 100 to 990 nM.

In the case of `COc1ccccc1N(CCN1CCC(C(=O)c2ccc(F)cc2)CC1)S(=O)(=O)c1ccc(F)cc1` [D, 4-Fluoro-N-{2-[4-(4-fluorobenzoyl)piperidino]ethyl}-N-(2-methoxyphenyl)benzenesulfonamide oxalate], the IC50 at serotonin 2 receptor lay within 10 to 99 nM.

Turning to `COc1ccc(S(=O)(=O)N(CCN2CCC(C(=O)c3ccc(F)cc3)CC2)c2ccccc2OC)cc1` [C, N-{2-[4-(4-Fluorobenzoyl)piperidino]ethyl}-4-methoxy-N-(2-methoxyphenyl)benzenesulfonamide oxalate], the IC50 with platelet aggregation is no less than 1000 nM.

With `COc1ccccc1N(CCN1CCC(C(=O)c2ccc(F)cc2)CC1)C(=O)c1ccc(CO)cc1.O=C(O)C(=O)O` [G, N-{2-[4-(4-Fluorobenzoyl)piperidino]ethyl}-4-hydroxymethyl-N-(2-methoxyphenyl)benzamide oxalate], the ED50 in test [1] (Mus musculus, iv) is less than 99 mg/kg. Further, in the test with platelet aggregation, the IC50 lay in the range of 100 to 990 nM.

As to `COc1cccc(N(CCN2CCC(C(=O)c3ccc(F)cc3)CC2)C(=O)c2ccc(NC(C)=O)cc2)c1.O=C(O)/C=C/C(=O)O` [J, 4-Acetylamino-N-{2-[4-(4-fluorobenzoyl)piperidino]ethyl}-N-(3-methoxyphenyl)benzamide fumarate], the ED50 in test [1] (Mus musculus, iv) lay within 100 to 999 mg/kg. For the same compound, the IC50 in the test on platelet aggregation was less than 99 nM; on serotonin 2 receptor it was 10 to 99 nM.

As to `COc1cccc(CC(CCN2CCC(C(=O)c3ccc(F)cc3)CC2)c2ccccc2OC)c1` (stereo not drawn) [A, 4-(4-Fluorobenzoyl)-1-[3-(2-methoxyphenyl)-4-(3-methoxyphenyl)butyl]piperidine hydrochloride], on serotonin 2 receptor, the IC50 lay in the range of 10 to 99 nM.

As for `COc1cccc(C(=O)N(CCN2CCC(C(=O)c3ccc(F)cc3)CC2)c2ccccc2OC)c1` [B, N-{2-[4-(4-Fluorobenzoyl)piperidino]ethyl}-3-methoxy-N-(2-methoxyphenyl)benzamide oxalate], the IC50 on serotonin 2 receptor was in the range of 10 to 99 nM.
